Data: ChEMBL document CHEMBL1201862, “PubChem BioAssay data set” (2004)
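Tested at 5 concentrations; 48 h exposure; 96-well plates; endpoints linearly interpolated, else capped at highest concentration. The concentration for 50% growth inhibition is given as GI50.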 Calls of active or inactive are those of the source. Cut-off read from the data, not from the text of the source: active = GI50 up to about 1.1 µM and inactive = higher.

Tests used:
Experiment in all cases: DTP human tumour cell line panel, 48 h
RXF 393 = tested on: RXF 393
COLO 205 = tested on: COLO 205
SK-MEL-2 = tested on: SK-MEL-2
NCI-H23 = tested on: NCI-H23
IGROV-1 = tested on: IGROV-1
DU-145 = tested on: DU-145
HL-60 = tested on: HL-60
CCRF-CEM = tested on: CCRF-CEM
K562 = tested on: K562
A549 = tested on: A549
SN12C = tested on: SN12C
SF-539 = tested on: SF-539
MCF7 = tested on: MCF7
UO-31 = tested on: UO-31
MOLT-4 = tested on: MOLT-4
UACC-62 = tested on: UACC-62
OVCAR-4 = tested on: OVCAR-4
SNB-19 = tested on: SNB-19
MDA-MB-435 = tested on: MDA-MB-435
KM12 = tested on: KM12
PC-3 = tested on: PC-3
HCT-15 = tested on: HCT-15
NCI-H226 = tested on: NCI-H226
SK-MEL-28 = tested on: SK-MEL-28
HCT-116 = tested on: HCT-116
NCI/ADR-RES = tested on: NCI/ADR-RES
SF-268 = tested on: SF-268
MDA-MB-231 = tested on: MDA-MB-231
786-0 = tested on: 786-0
CAKI-1 = tested on: CAKI-1
OVCAR-3 = tested on: OVCAR-3
SF-295 = tested on: SF-295
MDA-N = tested on: MDA-N
UACC-257 = tested on: UACC-257
NCI-H460 = tested on: NCI-H460
HOP-62 = tested on: HOP-62
U-251 = tested on: U-251
LOX IMVI = tested on: LOX IMVI
Hs-578T = tested on: Hs-578T
Malme-3M = tested on: Malme-3M
SK-OV-3 = tested on: SK-OV-3
SK-MEL-5 = tested on: SK-MEL-5
OVCAR-8 = tested on: OVCAR-8
T47D = tested on: T47D
HT-29 = tested on: HT-29
A498 = tested on: A498
RPMI-8226 = tested on: RPMI-8226
HCC 2998 = tested on: HCC 2998
SR = tested on: SR
TK-10 = tested on: TK-10
OVCAR-5 = tested on: OVCAR-5
NCI-H522 = tested on: NCI-H522
M14 = tested on: M14
ACHN = tested on: ACHN
EKVX = tested on: EKVX
SW-620 = tested on: SW-620
SNB-75 = tested on: SNB-75
HOP-92 = tested on: HOP-92

Measured: GI50

O=[N+]([O-])C(=C1NCCN1)C(Cl)=C(Cl)Cl
inactive: RXF 393 > 100 µM | COLO 205 > 100 µM | SK-MEL-2 > 100 µM | NCI-H23 > 100 µM | IGROV-1 > 100 µM | DU-145 > 100 µM | HL-60 62.2 µM | CCRF-CEM 52.6 µM | K562 > 100 µM | A549 > 100 µM | SN12C > 100 µM | SF-539 > 100 µM | MCF7 > 100 µM | UO-31 > 100 µM | MOLT-4 49.5 µM | UACC-62 > 100 µM | OVCAR-4 > 100 µM | SNB-19 > 100 µM | MDA-MB-435 > 100 µM | KM12 > 100 µM | PC-3 > 100 µM | NCI-H226 > 100 µM | SK-MEL-28 > 100 µM | HCT-116 > 100 µM | NCI/ADR-RES > 100 µM | SF-268 > 100 µM | MDA-MB-231 > 100 µM | 786-0 > 100 µM | CAKI-1 > 100 µM | OVCAR-3 > 100 µM | SF-295 > 100 µM | MDA-N > 100 µM | UACC-257 > 100 µM | NCI-H460 > 100 µM | HOP-62 > 100 µM | U-251 > 100 µM | LOX IMVI > 100 µM | Hs-578T > 100 µM | Malme-3M > 100 µM | SK-OV-3 > 100 µM | SK-MEL-5 > 100 µM | OVCAR-8 > 100 µM | T47D > 100 µM | HT-29 > 100 µM | A498 > 100 µM | RPMI-8226 > 100 µM | HCC 2998 > 100 µM | SR > 100 µM | TK-10 > 100 µM | OVCAR-5 > 100 µM | NCI-H522 > 100 µM | M14 > 100 µM | ACHN > 100 µM | EKVX > 100 µM
> 100 µM: HCT-15

Nc1ccc(S2(c3ccc(N)cc3)C=C(c3ccccc3)C(c3ccccc3)=C2)cc1
> 54.2 µM: HCT-15
inactive: RXF 393 > 26.9 µM | COLO 205 > 45 µM | SK-MEL-2 > 26.6 µM | NCI-H23 > 47.2 µM | SW-620 > 57.7 µM | IGROV-1 > 100 µM | SNB-75 > 100 µM | DU-145 > 38.4 µM | HL-60 > 100 µM | CCRF-CEM > 100 µM | K562 > 46.9 µM | A549 > 29.4 µM | SN12C > 25.3 µM | SF-539 > 25.5 µM | MCF7 > 32.1 µM | UO-31 > 40.6 µM | MOLT-4 > 73.8 µM | UACC-62 > 35.6 µM | OVCAR-4 11 µM | SNB-19 > 45 µM | MDA-MB-435 > 35.9 µM | KM12 > 54.7 µM | PC-3 > 25.2 µM | NCI-H226 > 21.8 µM | SK-MEL-28 > 31.1 µM | HCT-116 > 36 µM | NCI/ADR-RES > 35.1 µM | SF-268 > 44.5 µM | MDA-MB-231 > 24.2 µM | 786-0 24 µM | OVCAR-3 > 100 µM | SF-295 16.4 µM | MDA-N > 30.2 µM | UACC-257 > 54.5 µM | NCI-H460 > 22.4 µM | HOP-62 70.8 µM | U-251 > 25 µM | HOP-92 18.1 µM | LOX IMVI > 33.5 µM | Hs-578T > 100 µM | Malme-3M > 100 µM | SK-OV-3 > 26.9 µM | SK-MEL-5 > 100 µM | OVCAR-8 > 26.4 µM | T47D > 100 µM | HT-29 > 44.7 µM | A498 > 29.4 µM | RPMI-8226 > 64 µM | HCC 2998 > 54 µM | SR > 45.5 µM | TK-10 > 27.9 µM | OVCAR-5 > 65.6 µM | M14 > 72.8 µM | ACHN > 28.6 µM | EKVX > 100 µM
